Data published in ChEMBL document CHEMBL4261640, “Potent Antiglioblastoma Agents by Hybridizing the Onium-Alkyloxy-Stilbene Based Structures of an α7-nAChR, α9-nAChR Antagonist and of a Pro-Oxidant Mitocan” (J Med Chem, 2018).
Calls of active or inactive are those of the source. No cut-off for these calls is given here.

Legend:
[1] = Drug uptake in human HepG2 cells assessed as relative fluorescence unit at 1 uM after 1 hr to 24 hrs by fluorescent plate reader based assay; format: ADME, cell-based; conditions: hepg2, 1 µM
[2] = target: T1, Neuronal acetylcholine receptor subunit alpha-7 (Homo sapiens, UniProt P36544); experiment: Antagonist activity at human alpha7 nACHR expressed in xenopous laevis oocyte assessed as inhibition of ACh-induced channel current after 5 mins at -70 mV holding potential by two electrode voltage clamp method
T1 sequence (P36544 whole entry): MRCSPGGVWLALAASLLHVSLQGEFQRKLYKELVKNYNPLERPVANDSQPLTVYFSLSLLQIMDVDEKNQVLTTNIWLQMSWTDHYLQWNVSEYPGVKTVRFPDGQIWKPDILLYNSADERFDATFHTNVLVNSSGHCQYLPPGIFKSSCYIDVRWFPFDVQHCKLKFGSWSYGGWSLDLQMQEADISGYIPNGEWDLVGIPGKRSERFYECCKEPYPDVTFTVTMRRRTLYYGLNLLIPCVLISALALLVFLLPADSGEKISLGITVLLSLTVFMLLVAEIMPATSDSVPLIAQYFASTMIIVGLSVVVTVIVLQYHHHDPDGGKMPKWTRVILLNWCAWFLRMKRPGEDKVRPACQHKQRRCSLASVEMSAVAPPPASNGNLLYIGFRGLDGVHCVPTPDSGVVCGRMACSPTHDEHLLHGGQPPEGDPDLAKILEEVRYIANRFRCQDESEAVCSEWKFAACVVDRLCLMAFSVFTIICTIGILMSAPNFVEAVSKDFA

[3] = target: T1, Neuronal acetylcholine receptor subunit alpha-7; experiment: Displacement of [125I]-alpha-bungarotoxin from human alpha7 nAChR expressed in human SH-SY5Y cell membranes after 30 mins by gamma counting analysis
U-87 MG [4] = experiment: Induction of ROS production in human U87MG cells at 500 nM after 1 hr by MitoSOX Red mitochondrial superoxide indicator based FACS analysis relative to antimycin A; format: functional, U-87MG ATCC
U-87 MG [5] = experiment: cells; conditions: Homo sapiens, 72 h
Description: Antiproliferative activity against human U87MG cells after 72 hrs by MTS assay

U-87 MG [6] = experiment: Induction of ROS production in human U87MG cells after 1 hr by MitoSOX Red mitochondrial superoxide indicator based FACS analysis; format: functional, cell-based; conditions: U-87MG ATCC
Astrocyte = experiment: Cytotoxicity against mouse astrocytes assessed as reduction in cell viability after 72 hrs by MTS assay
U-87 MG [7] = experiment: Reduction in mitochondrial membrane potential in human U87MG cells after 72 hr by TMRM-staining based assay; conditions: U-87MG ATCC
U-87 MG [8] = experiment: Reduction in mitochondrial membrane potential in human U87MG cells after 72 hrs by TMRM-staining based assay; format: functional, cell-based; conditions: U-87MG ATCC
U-87 MG [9] = experiment: Cytotoxicity against human U87MG cells assessed as decrease in ATP production at 2 uM after 72 hrs by luciferin-luciferase-based luminescent assay; format: functional, cell-based; conditions: U-87MG ATCC
A549 = experiment: cells; conditions: Homo sapiens, A549, 72 h
Description: Antiproliferative activity against human A549 cells after 72 hrs by MTS assay

SH-SY5Y = experiment: Antiproliferative activity against human SH-SY5Y cells after 72 hrs by MTS assay
U-87 MG [10] = experiment: Cytotoxicity against human U87MG cells assessed as decrease in ATP production at 2 uM after 1 hr by luciferin-luciferase-based luminescent assay; format: functional, cell-based; conditions: U-87MG ATCC
U-87 MG [11] = experiment: Cytotoxicity against human U87MG cells assessed as decrease in ATP production at 0.1 uM after 1 hr by luciferin-luciferase-based luminescent assay; format: functional, cell-based; conditions: U-87MG ATCC
U-87 MG [12] = experiment: Cytotoxicity against human U87MG cells assessed as decrease in ATP production at 0.1 uM after 72 hrs by luciferin-luciferase-based luminescent assay; format: functional, cell-based; conditions: U-87MG ATCC
U-87 MG [13] = experiment: Cytotoxicity against human U87MG cells assessed as decrease in ATP production at 4 uM after 72 hrs by luciferin-luciferase-based luminescent assay; format: functional, cell-based; conditions: U-87MG ATCC
[14] = target: Neuronal acetylcholine receptor; alpha9/alpha10 (Homo sapiens, UniProt Q9GZZ6+Q9UGM1); experiment: Antagonist activity at human alpha9alpha10 nACHR expressed in xenopous laevis oocyte assessed as inhibition of ACh-induced channel current after 5 mins at -70 mV holding potential by two electrode voltage clamp method
Neuronal acetylcholine receptor; alpha9/alpha10, sequence (Q9UGM1 whole entry): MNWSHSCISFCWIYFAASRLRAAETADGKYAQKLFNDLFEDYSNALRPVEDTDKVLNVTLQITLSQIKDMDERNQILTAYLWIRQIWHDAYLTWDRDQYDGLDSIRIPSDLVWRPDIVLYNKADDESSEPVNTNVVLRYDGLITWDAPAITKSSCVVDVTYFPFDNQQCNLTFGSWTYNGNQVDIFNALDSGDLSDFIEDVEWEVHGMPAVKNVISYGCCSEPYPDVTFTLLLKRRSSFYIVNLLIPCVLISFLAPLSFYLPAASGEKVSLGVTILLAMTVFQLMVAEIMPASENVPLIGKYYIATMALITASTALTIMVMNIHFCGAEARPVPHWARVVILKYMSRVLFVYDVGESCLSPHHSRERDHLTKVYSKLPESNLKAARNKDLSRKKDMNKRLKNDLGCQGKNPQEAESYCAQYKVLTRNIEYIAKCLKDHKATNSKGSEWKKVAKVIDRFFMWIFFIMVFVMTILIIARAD
Neuronal acetylcholine receptor; alpha9/alpha10, sequence (Q9GZZ6 whole entry): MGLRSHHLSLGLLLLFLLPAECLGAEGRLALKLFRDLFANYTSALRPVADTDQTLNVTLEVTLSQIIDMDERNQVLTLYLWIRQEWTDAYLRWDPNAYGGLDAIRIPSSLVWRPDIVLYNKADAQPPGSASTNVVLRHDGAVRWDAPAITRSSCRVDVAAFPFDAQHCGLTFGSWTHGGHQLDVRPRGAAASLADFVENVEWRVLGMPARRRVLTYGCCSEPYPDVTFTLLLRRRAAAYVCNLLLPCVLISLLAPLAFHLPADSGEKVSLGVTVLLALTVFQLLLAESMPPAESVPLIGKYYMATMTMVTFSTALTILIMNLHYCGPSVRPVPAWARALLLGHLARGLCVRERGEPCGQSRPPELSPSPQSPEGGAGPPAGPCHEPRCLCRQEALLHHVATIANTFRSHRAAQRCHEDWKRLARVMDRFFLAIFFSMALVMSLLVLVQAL

U-87 MG [15] = experiment: Cytotoxicity against human U87MG cells assessed as decrease in ATP production at 1 uM after 72 hrs by luciferin-luciferase-based luminescent assay; format: functional, cell-based; conditions: U-87MG ATCC
U-87 MG [16] = experiment: Cytotoxicity against human U87MG cells assessed as decrease in ATP production at 1 uM after 1 hr by luciferin-luciferase-based luminescent assay; format: functional, cell-based; conditions: U-87MG ATCC
[17] = Drug metabolism in human HepG2 cells assessed as loss of styrene moiety at 100 uM incubated for 24 hrs by MS/MS analysis; format: ADME, cell-based; conditions: hepg2, 24 h
[18] = Drug uptake in human HepG2 cells assessed as relative fluorescence unit at 50 uM after 24 hrs by fluorescent plate reader based assay; format: ADME, cell-based; conditions: hepg2, 24 h
[19] = Drug uptake in human HepG2 cells assessed as relative fluorescence unit at 1 uM after 6 hrs by fluorescent plate reader based assay; format: ADME, cell-based; conditions: hepg2, 6 h
[20] = Drug uptake in human HepG2 cells by fluorescent plate reader based assay; format: ADME, cell-based
[21] = Drug uptake in human HepG2 cells assessed as relative fluorescence unit at 10 uM after 6 hrs by fluorescent plate reader based assay; format: ADME, cell-based; conditions: hepg2, 6 h
[22] = Drug uptake in human HepG2 cells assessed as relative fluorescence unit at 1 uM after 24 hrs by fluorescent plate reader based assay; format: ADME, cell-based; conditions: hepg2, 24 h
[23] = Drug uptake in human HepG2 cells assessed as relative fluorescence unit at 100 uM after 6 hrs by fluorescent plate reader based assay; format: ADME, cell-based; conditions: hepg2, 6 h
[24] = Drug uptake in human HepG2 cells assessed as relative fluorescence unit at 100 uM after 24 hrs by fluorescent plate reader based assay; format: ADME, cell-based; conditions: hepg2, 24 h
[25] = Drug uptake in human HepG2 cells assessed as relative fluorescence unit at 10 uM after 24 hrs by fluorescent plate reader based assay; format: ADME, cell-based; conditions: hepg2, 24 h
[26] = Drug uptake in human HepG2 cells assessed as relative fluorescence unit at 50 uM after 6 hrs by fluorescent plate reader based assay; format: ADME, cell-based; conditions: hepg2, 6 h

| Structure (SMILES) | IC50 [2] | Ki [3] | Activity (U-87 MG [4]) | IC50 (U-87 MG [5]) | Activity (U-87 MG [7]) | Activity (U-87 MG [8]) | IC50 (A549) | other results |
| --- | --- | --- | --- | --- | --- | --- | --- | --- |
| CC[N+](CC)(CC)CCCCCCCCOc1ccc(/C=C/c2ccccc2)cc1.[I-] | 0.092 µM | 0.164 µM |  |  |  |  |  | Drug uptake [1]: Active |
| C(=C\c1ccc(OCCCC[P+](c2ccccc2)(c2ccccc2)c2ccccc2)cc1)/c1ccccc1.[I-] |  | 1.64 µM | 1.5% | 0.64 µM | Active | Active | 0.42 µM | Activity (U-87 MG [6]): Dose-dependent effect; IC50 (Astrocyte): 0.4 µM; Activity (U-87 MG [9]): Active; IC50 (SH-SY5Y): 3 µM; Activity (U-87 MG [10]): Active |
| CC[N+](CC)(CC)CCCCOc1ccc(/C=C/c2cc(OC)cc(OC)c2)cc1 | 0.0243 µM | 0.305 µM |  |  |  |  |  |  |
| C(=C\c1ccc(OCCCCCCC[P+](c2ccccc2)(c2ccccc2)c2ccccc2)cc1)/c1ccccc1.[I-] |  | 0.617 µM | 39.5% | 0.36 µM |  |  | 0.12 µM |  |
| C(=C\c1ccc(OCCCCC[P+](c2ccccc2)(c2ccccc2)c2ccccc2)cc1)/c1ccccc1.[I-] |  | 2.8 µM | 20% | 0.67 µM |  |  | 0.32 µM |  |
| CC[N+](CC)(CC)CCCCCCOc1ccc(/C=C/c2ccccc2)cc1 | 0.0123 µM | 0.465 µM |  |  |  |  |  |  |
| C(=C\c1ccc(OCCCCCCCCCC[P+](c2ccccc2)(c2ccccc2)c2ccccc2)cc1)/c1ccccc1.[I-] |  | 1.93 µM | 58.2% | 0.06 µM | Active | Active | 0.1 µM | Activity (U-87 MG [11]): Active; Activity (U-87 MG [6]): Dose-dependent effect; IC50 (Astrocyte): 0.6 µM; Activity (U-87 MG [12]): Active; IC50 (SH-SY5Y): 0.21 µM |
| C(=C\c1ccc(OCCCCCCCCC[P+](c2ccccc2)(c2ccccc2)c2ccccc2)cc1)/c1ccccc1.[I-] |  | 1.29 µM | 56.3% | 0.09 µM |  |  | 0.11 µM |  |
| C(=C\c1ccc(OCCCCCCCC[P+](c2ccccc2)(c2ccccc2)c2ccccc2)cc1)/c1ccccc1.[I-] |  | 0.909 µM | 46.3% | 0.07 µM |  |  | 0.26 µM | Drug uptake [1]: Active |
| CC[N+](CC)(CC)CCCCOc1ccc(/C=C/c2ccccc2)cc1.[I-] | 0.0065 µM | 0.186 µM |  |  |  |  |  | Drug uptake [1]: Active |
| CC[N+](CC)(CC)CCOc1ccc(/C=C/c2cc(OC)cc(OC)c2)cc1 |  |  |  | 5.3 µM | Active | Active | 12 µM | Activity (U-87 MG [6]): inactive; IC50 (Astrocyte): 23 µM; Activity (U-87 MG [13]): Active; IC50 (SH-SY5Y): > 100 µM; IC50 [14]: 0.0172 µM |
| COc1cc(/C=C/c2ccc(OCCCC[P+](c3ccccc3)(c3ccccc3)c3ccccc3)cc2)cc(OC)c1.[I-] | > 10 µM | 1.83 µM | 16.3% | 0.86 µM | Active | Active | 0.26 µM | Activity (U-87 MG [15]): Active; Activity (U-87 MG [6]): Dose-dependent effect; Activity (U-87 MG [16]): Active; IC50 (Astrocyte): 1 µM; IC50 (SH-SY5Y): 0.55 µM; IC50 [14]: > 10 µM |
| C(=C\c1ccc(OCCCCCC[P+](c2ccccc2)(c2ccccc2)c2ccccc2)cc1)/c1ccccc1.[I-] |  | 0.559 µM | 27.3% | 0.38 µM |  |  | 0.15 µM |  |
| C(=C\c1ccc(OCCC[P+](c2ccccc2)(c2ccccc2)c2ccccc2)cc1)/c1ccccc1.[I-] |  | 0.984 µM | 21% | 1.4 µM |  |  | 1.8 µM |  |
| CC[N+](CC)(CC)CCOc1ccc(/C=C/c2ccccc2)cc1.[I-] [STILONIUM IODIDE] |  |  |  |  | Active | Active |  | Drug metabolism [17]: Metabolite_Detected; Drug uptake [18]: 9.13 RFU; Drug uptake [19]: 4.75 RFU; Drug uptake [20]: Dose-dependent effect and Tde; Drug uptake [21]: 6.82 RFU; Activity (U-87 MG [13]): Active; Drug uptake [22]: 5.42 RFU; Drug uptake [23]: 9.43 RFU; Drug uptake [24]: 14.35 RFU; Drug uptake [25]: 7.18 RFU; Drug uptake [26]: 7.67 RFU |
